Data reported in article PMC8695447, “Novel Small Molecules Capable of Blocking mtRAS-Signaling Pathway” (Frontiers in Oncology, 2021).

Assays:
Format in all cases: cell-based
[1] = system: MDA-MB-231 (KRAS-G13D); test: Anti-proliferation assay on MDA-MB-231; settings: Homo sapiens, MDA-MB-231; 72 h treatment; average with SD (n = 3, duplicate)
Description: (§1) Ba/F3-parental, OCI-AML3, U397 cells were purchased from DSMZ. MDA-MB-231, HCT-116, AsPC-1, H358, HT-29, SW480, and DU-145 cells were obtained from KCLB. MDA-MB-468 cells were obtained from ATCC. All cells were maintained in RPMI with 10% FBS and antibiotics. Cells were grown in a humidified 5% CO2 incubator at 37°C. Ba/F3-parental cells were grown in the presence of 10 ng/ml IL-3. NRAS-G12D or NRAS-G12V transformed Ba/F3 cell lines (Ba/F3-NRAS-G12D, and Ba/F3-NRAS-G12V, respectively) were cultured without IL-3, which were established by the procedure described as previously ([30]).
(§2) Approximately 3.0 × 10^3 cells/well were seeded in a 96-well cell culture plate. After stabilization, 1/3 serially diluted compound in DMSO was treated to the cell. […] All GI50 values were obtained in duplicate with three independent assays and averages with standard deviation are presented.

[2] = system: MDA-MB-468 (KRAS, NRAS-wt); test: Anti-proliferation assay on MDA-MB-468; settings: for GI50: Homo sapiens, MDA-MB-468, 72 h treatment, average with SD (n = 3, duplicate); for antiproliferative activity fold lower on MDA-MB-468 cells than on HCT-116 harboring KRAS-G13D mutation: MDA-MB-468 versus HCT-116; for times less active on MDA-MB-468 cells harboring wtRAS than on SW480 cells with KRAS-G12V mutation: MDA-MB-468 versus SW480
Description: as §1, §2

[3] = system: SW480 (KRAS-G12V); test: Anti-proliferation assay on SW480; settings: Homo sapiens, SW480; 72 h treatment; average with SD (n = 3, duplicate)
Description: as §1, §2

[4] = system: cleaved PARP in cancer cells harboring mtRAS; test: Western blot, cleaved PARP in cancer cells harboring mtRAS; settings: 1 μM, 24 h
Description: (§3) Approximately 1 × 10^6 cells per well were seeded in a 6-well cell culture plate. After cell adhesion, each compounds were treated for 2 h with indicated concentration and conducted brief washing twice by ice-cold PBS. Cells were lysed by NP40 buffer (50 mM Tris–HCl pH 7.4, 1% NP40, 2 mM EDTA, 150 mM NaCl) in the presence of protease inhibitor cocktail (Roche, #11873580001) and phosphatase inhibitor cocktail (Roche, #04906837001). Each sample was loaded with same amount of total protein and separated by SDS-PAGE gel. After transferred to nitrocellulose membrane, blocking with 5% skim milk (in TBS/T) was followed. […] Chemiluminescence signals were detected by ImageQuant™ LAS 4000 (GE Healthcare).
Figure 4 The effects of (A) SIJ1795 and (B) SIJ1772 on apoptosis induction in cancer cells harboring mtRAS. […] (C) Apoptotic cell population (annexin V-positive) was determined by flow cytometry analysis (n = 3). […] Statistical significance was determined using a one-way ANOVA analysis (*p < 0.05, **p < 0.01, ***p < 0.001).

[5] = system: Ba/F3-parental cells; test: Anti-proliferation assay (CellTiter Glo) on Ba/F3-parental; settings: Mus musculus, BaF3; 72 h treatment; with 10 ng/ml IL-3; average with SD (n = 3, duplicate)
Description: as §1, §2

[6] = system: cleaved PARP in Ba/F3-NRAS-G12D and Ba/F3-NRAS-G12V cells; test: Western blot, cleaved PARP in Ba/F3 cells transformed with mtRAS; settings: 1 μM, 24 h
Description: as §3
Figure 3 (A, B) The effects of SIJ1795 and SIJ1772 on apoptosis induction in Ba/F3 cells transformed with mtRAS (NRAS-G12D and NRAS-G12V). […] (C) Apoptotic cell population (annexin V-positive) was determined by flow cytometry analysis (n = 3). […] Statistical significance was calculated by a one-way ANOVA analysis (**p < 0.01, ***p < 0.001).

[7] = system: cancer cells harboring mtRAS; test: Flow cytometry apoptosis analysis (annexin V/PI), cancer cells harboring mtRAS; settings: 1 μM, 24 h
Description: For apoptosis analysis, cells (1 × 10^6 cells per sample) were incubated with each compounds for 24 h. Cells were subjected to brief ice-cold PBS washing and subjected to staining with Alexafluor488-conjugated annexin V (Thermo Fisher, A13201), and propidium iodide (PI, Thermo Fisher, P3560). Thereafter, apoptotic cells were classified by FACS Accuri™ C6 Plus (BD Biosciences). Debris and unstained cells and were excluded by gating.
Figure 4 The effects of (A) SIJ1795 and (B) SIJ1772 on apoptosis induction in cancer cells harboring mtRAS. Cells were treated with 0.1 and 1 μM of SIJ1795 SIJ1772, and GNF-7 for 24 h. Western blot analysis was conducted to evaluate the cleaved PARP and level. GAPDH was used as a loading control. (C) Apoptotic cell population (annexin V-positive) was determined by flow cytometry analysis (n = 3). Cells were treated with 1 μM of indicated compounds for 24 h. Statistical significance was determined using a one-way ANOVA analysis (*p < 0.05, **p < 0.01, ***p < 0.001).

[8] = system: phospho-AKT, -MEK, -ERK in cancer cells harboring mtRAS; test: Western blot, phospho-AKT, -MEK, -ERK in cancer cells harboring mtRAS; settings: 0.1, 1, and 10 μM for 2 h
Description: as §3, with “followed. The membrane was incubated 4°C for overnight with uniformly diluted primary antibodies at 1:1,000 (v/v) in TBS/T. The following primary antibodies were used: anti-p-AKT (Cell Signaling, #9271), anti-p-ERK1/2 (Cell Signaling, #4370), anti-PARP (Cell Signaling, #9542), anti-GAPDH (Cell Signaling, #5174), anti-p-70S6K1 (Cell Signaling, #9204), anti-p-JNK(Cell Signaling, #9251), anti-p-p38 (Cell Signaling, #9216), and anti-p-MEK1/2 (Santa Cruz, sc-81503).” for “followed.”, “Healthcare). […]” for “Healthcare).”

Row | Compound | GI50 [1] [nM] | GI50 [2] [nM] | antiproliferative activity fold lower on MDA-MB-468 cells than on HCT-116 harboring KRAS-G13D mutation [2] [fold] | times less active on MDA-MB-468 cells harboring wtRAS than on SW480 cells with KRAS-G12V mutation [2] [times] | GI50 [3] [nM] | level of cleaved PARP in cancer cells harboring mtRAS [4] | GI50 [5] [nM] | cleaved PARP level in Ba/F3-NRAS-G12D and Ba/F3-NRAS-G12V cells [6] | apoptosis against cancer cells harboring mtRAS (annexin V/PI) [7] | signaling inhibitory activities in cancer cells with mtRAS relative to GNF-7 [8]
1 | CCN1CCN(c2cccc(Nc3ncc4c(n3)N(C)C(=O)N(c3cc(NC(=O)c5cccc(C(F)(F)F)c5)ccc3C)C4)c2)CC1 [SIJ1795, N-(3-(7-((3-(4-Ethylpiperazin-1-yl)phenyl)amino)-1-methyl-2-oxo-1,4-dihydropyrimido[4,5-d]pyrimidin-3(2H)-yl)-4-methylphenyl)-3-(trifluoromethyl)benzamide] | 53 ± 8 | 15700 ± 5310 | 476 | 64 | 245 ± 12 | notably increased | 2020 ± 419 | increased cleaved PARP level | induced apoptosis | comparable to those of GNF-7
2 | Cc1ccc(NC(=O)c2cccc(C(F)(F)F)c2)cc1N1Cc2cnc(Nc3cnn(C4CCN(S(C)(=O)=O)CC4)c3)nc2N(C)C1=O [SIJ1772, N-(4-Methyl-3-(1-methyl-7-((1-(1-(methylsulfonyl)piperidin-4-yl)-1H-pyrazol-4-yl)amino)-2-oxo-1,4-dihydropyrimido[4,5-d]pyrimidin-3(2H)-yl)phenyl)-3-(trifluoromethyl)benzamide] | 58 ± 1 | 44900 ± 6260 | 1182 | 101 | 447 ± 173 | notably increased | 1920 ± 86 | increased cleaved PARP level | induced apoptosis | comparable to those of GNF-7
